From ChEMBL document CHEMBL5321272 (J Med Chem, 2023)
The source made the active and inactive calls. The calls are words filed in the database; no cut-off is given here.

System: not listed separately
Assay: Cmax in ICR mouse at 10 mg/kg, po
Assay type: ADME, organism-based
Design: dose 10 mg/kg, route po
Settings: in vivo

| SMILES | Cmax [ng/mL] |
| --- | --- |
| CC(C)(O)CC(=O)N1Cc2ccc(Nc3ncc(C(F)(F)F)c(N[C@H]4CC[C@@H](N)CC4)n3)cc2C1 | 42.5 |
| CC(=O)N1Cc2ccc(Nc3ncc(C(F)(F)F)c(N[C@H]4CC[C@@H](N)CC4)n3)cc2C1 | 32 |
| CC(C)(O)C(=O)N1CCc2ccc(Nc3ncc(C(F)(F)F)c(N[C@H]4CC[C@@H](N)CC4)n3)cc2C1 | 4.06 |
| N[C@H]1CC[C@@H](Nc2nc(Nc3ccc4c(c3)CCN(C(=O)CO)C4)ncc2C(F)(F)F)CC1 | 162 |

System: BaF3
Assay: Antiproliferative activity against mouse BaF3 cells harboring FLT3 F691L mutant assessed as reduction in cell viability incubated for 72 hrs by CellTiter 96 Aqueous One Solution Cell Proliferation Assay
Assay type: functional, cell-based
Settings: not given

| SMILES | Activity |
| --- | --- |
| CC(C)(O)CC(=O)N1Cc2ccc(Nc3ncc(C(F)(F)F)c(N[C@H]4CC[C@@H](N)CC4)n3)cc2C1 | Active |
| CC(=O)N1Cc2ccc(Nc3ncc(C(F)(F)F)c(N[C@H]4CC[C@@H](N)CC4)n3)cc2C1 | Active |
| CC(C)(O)C(=O)N1CCc2ccc(Nc3ncc(C(F)(F)F)c(N[C@H]4CC[C@@H](N)CC4)n3)cc2C1 | Active |
| N[C@H]1CC[C@@H](Nc2nc(Nc3ccc4c(c3)CCN(C(=O)CO)C4)ncc2C(F)(F)F)CC1 | Active |

System: BaF3
Assay: Antiproliferative activity against mouse BaF3 cells harboring FLT3 D835V mutant assessed as reduction in cell viability incubated for 72 hrs by CellTiter 96 Aqueous One Solution Cell Proliferation Assay
Assay type: functional, cell-based
Settings: not given

| SMILES | Activity |
| --- | --- |
| CC(C)(O)CC(=O)N1Cc2ccc(Nc3ncc(C(F)(F)F)c(N[C@H]4CC[C@@H](N)CC4)n3)cc2C1 | Active |
| CC(=O)N1Cc2ccc(Nc3ncc(C(F)(F)F)c(N[C@H]4CC[C@@H](N)CC4)n3)cc2C1 | Active |
| CC(C)(O)C(=O)N1CCc2ccc(Nc3ncc(C(F)(F)F)c(N[C@H]4CC[C@@H](N)CC4)n3)cc2C1 | Active |
| N[C@H]1CC[C@@H](Nc2nc(Nc3ccc4c(c3)CCN(C(=O)CO)C4)ncc2C(F)(F)F)CC1 | Active |

Target: Mast/stem cell growth factor receptor Kit (Homo sapiens, UniProt P10721)
Sequence (P10721 whole entry): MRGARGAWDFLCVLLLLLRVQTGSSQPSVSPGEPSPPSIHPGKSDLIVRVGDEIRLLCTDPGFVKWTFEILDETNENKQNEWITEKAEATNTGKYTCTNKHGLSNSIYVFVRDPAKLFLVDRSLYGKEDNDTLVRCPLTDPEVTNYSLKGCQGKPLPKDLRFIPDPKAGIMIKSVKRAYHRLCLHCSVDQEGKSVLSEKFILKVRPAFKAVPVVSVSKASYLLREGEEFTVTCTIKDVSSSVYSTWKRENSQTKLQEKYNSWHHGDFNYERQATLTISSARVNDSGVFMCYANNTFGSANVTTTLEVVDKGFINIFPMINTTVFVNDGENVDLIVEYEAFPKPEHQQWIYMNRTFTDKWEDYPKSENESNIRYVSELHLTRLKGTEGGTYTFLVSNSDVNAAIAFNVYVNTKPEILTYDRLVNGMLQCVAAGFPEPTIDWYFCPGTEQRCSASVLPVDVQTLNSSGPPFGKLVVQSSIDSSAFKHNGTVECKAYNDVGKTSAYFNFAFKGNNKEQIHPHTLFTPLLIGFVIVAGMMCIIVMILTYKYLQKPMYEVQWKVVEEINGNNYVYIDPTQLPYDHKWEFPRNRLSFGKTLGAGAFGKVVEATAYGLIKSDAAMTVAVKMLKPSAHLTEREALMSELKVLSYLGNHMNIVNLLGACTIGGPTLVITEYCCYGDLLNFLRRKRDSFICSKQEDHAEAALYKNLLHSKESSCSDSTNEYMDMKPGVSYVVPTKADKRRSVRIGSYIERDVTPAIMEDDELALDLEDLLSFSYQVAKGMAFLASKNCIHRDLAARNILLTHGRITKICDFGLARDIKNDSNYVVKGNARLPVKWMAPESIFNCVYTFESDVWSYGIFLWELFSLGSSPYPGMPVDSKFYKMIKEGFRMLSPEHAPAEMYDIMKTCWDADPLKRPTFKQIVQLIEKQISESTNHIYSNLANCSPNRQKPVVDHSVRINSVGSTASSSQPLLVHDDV
Assay: Inhibition of c-KIT (unknown origin) using peptide substrate TK-S and ATP as substrate incubated for 1 hr by HTRF assay
Assay type: toxicity
Settings: not given

| SMILES | IC50 [nM] |
| --- | --- |
| CC(C)(O)CC(=O)N1Cc2ccc(Nc3ncc(C(F)(F)F)c(N[C@H]4CC[C@@H](N)CC4)n3)cc2C1 | 2460 |
| CC(=O)N1Cc2ccc(Nc3ncc(C(F)(F)F)c(N[C@H]4CC[C@@H](N)CC4)n3)cc2C1 | 2240 |
| CC(C)(O)C(=O)N1CCc2ccc(Nc3ncc(C(F)(F)F)c(N[C@H]4CC[C@@H](N)CC4)n3)cc2C1 | 8910 |
| N[C@H]1CC[C@@H](Nc2nc(Nc3ccc4c(c3)CCN(C(=O)CO)C4)ncc2C(F)(F)F)CC1 | 2030 |

System: not listed separately
Assay: Selectivity ratio of IC50 for inhibition of c-KIT (unknown origin) to IC50 for inhibition of FLT3 D835Y mutant (unknown origin)
Settings: not given

| SMILES | Ratio IC50 |
| --- | --- |
| CC(C)(O)CC(=O)N1Cc2ccc(Nc3ncc(C(F)(F)F)c(N[C@H]4CC[C@@H](N)CC4)n3)cc2C1 | 2200 |
| CC(=O)N1Cc2ccc(Nc3ncc(C(F)(F)F)c(N[C@H]4CC[C@@H](N)CC4)n3)cc2C1 | 1370 |
| CC(C)(O)C(=O)N1CCc2ccc(Nc3ncc(C(F)(F)F)c(N[C@H]4CC[C@@H](N)CC4)n3)cc2C1 | 4030 |
| N[C@H]1CC[C@@H](Nc2nc(Nc3ccc4c(c3)CCN(C(=O)CO)C4)ncc2C(F)(F)F)CC1 | 4420 |

System: MV4-11
Assay: cells
Settings: Homo sapiens, MV4-11, 72 h
Description: Antiproliferative activity against human MV4-11 cells assessed as reduction in cell viability incubated for 72 hrs by CellTiter 96 Aqueous One Solution Cell Proliferation Assay

| SMILES | IC50 [nM] |
| --- | --- |
| CC(C)(O)CC(=O)N1Cc2ccc(Nc3ncc(C(F)(F)F)c(N[C@H]4CC[C@@H](N)CC4)n3)cc2C1 | 0.48 |
| CC(=O)N1Cc2ccc(Nc3ncc(C(F)(F)F)c(N[C@H]4CC[C@@H](N)CC4)n3)cc2C1 | 0.34 |
| CC(C)(O)C(=O)N1CCc2ccc(Nc3ncc(C(F)(F)F)c(N[C@H]4CC[C@@H](N)CC4)n3)cc2C1 | 0.93 |
| N[C@H]1CC[C@@H](Nc2nc(Nc3ccc4c(c3)CCN(C(=O)CO)C4)ncc2C(F)(F)F)CC1 | 0.28 |

System: BaF3
Assay: Antiproliferative activity against mouse BaF3 cells harboring FLT3 D835F mutant assessed as reduction in cell viability incubated for 72 hrs by CellTiter 96 Aqueous One Solution Cell Proliferation Assay
Assay type: functional, cell-based
Settings: not given

| SMILES | Activity |
| --- | --- |
| CC(C)(O)CC(=O)N1Cc2ccc(Nc3ncc(C(F)(F)F)c(N[C@H]4CC[C@@H](N)CC4)n3)cc2C1 | Active |
| CC(=O)N1Cc2ccc(Nc3ncc(C(F)(F)F)c(N[C@H]4CC[C@@H](N)CC4)n3)cc2C1 | Active |
| CC(C)(O)C(=O)N1CCc2ccc(Nc3ncc(C(F)(F)F)c(N[C@H]4CC[C@@H](N)CC4)n3)cc2C1 | Active |
| N[C@H]1CC[C@@H](Nc2nc(Nc3ccc4c(c3)CCN(C(=O)CO)C4)ncc2C(F)(F)F)CC1 | Active |

System: not listed separately
Assay: Tmax in ICR mouse at 10 mg/kg, po
Assay type: ADME, organism-based
Settings: in vivo

| SMILES | Tmax [h] |
| --- | --- |
| CC(C)(O)CC(=O)N1Cc2ccc(Nc3ncc(C(F)(F)F)c(N[C@H]4CC[C@@H](N)CC4)n3)cc2C1 | 1 |
| CC(=O)N1Cc2ccc(Nc3ncc(C(F)(F)F)c(N[C@H]4CC[C@@H](N)CC4)n3)cc2C1 | 2 |
| CC(C)(O)C(=O)N1CCc2ccc(Nc3ncc(C(F)(F)F)c(N[C@H]4CC[C@@H](N)CC4)n3)cc2C1 | 0.25 |
| N[C@H]1CC[C@@H](Nc2nc(Nc3ccc4c(c3)CCN(C(=O)CO)C4)ncc2C(F)(F)F)CC1 | 1 |

System: not listed separately
Assay: AUC (last) in ICR mouse at 10 mg/kg, po
Assay type: ADME, organism-based
Design: dose 10 mg/kg, route po
Settings: in vivo

| SMILES | AUC(0-t) [ng·h/mL] |
| --- | --- |
| CC(C)(O)CC(=O)N1Cc2ccc(Nc3ncc(C(F)(F)F)c(N[C@H]4CC[C@@H](N)CC4)n3)cc2C1 | 99.6 |
| CC(=O)N1Cc2ccc(Nc3ncc(C(F)(F)F)c(N[C@H]4CC[C@@H](N)CC4)n3)cc2C1 | 97.8 |
| CC(C)(O)C(=O)N1CCc2ccc(Nc3ncc(C(F)(F)F)c(N[C@H]4CC[C@@H](N)CC4)n3)cc2C1 | 18.6 |
| N[C@H]1CC[C@@H](Nc2nc(Nc3ccc4c(c3)CCN(C(=O)CO)C4)ncc2C(F)(F)F)CC1 | 340 |

System: not listed separately
Assay: MRT (infinity) in ICR mouse at 10 mg/kg, po
Assay type: ADME, organism-based
Settings: in vivo

| SMILES | MRT inf [h] |
| --- | --- |
| CC(C)(O)CC(=O)N1Cc2ccc(Nc3ncc(C(F)(F)F)c(N[C@H]4CC[C@@H](N)CC4)n3)cc2C1 | 1.67 |
| CC(=O)N1Cc2ccc(Nc3ncc(C(F)(F)F)c(N[C@H]4CC[C@@H](N)CC4)n3)cc2C1 | 2.29 |
| CC(C)(O)C(=O)N1CCc2ccc(Nc3ncc(C(F)(F)F)c(N[C@H]4CC[C@@H](N)CC4)n3)cc2C1 | 13.9 |
| N[C@H]1CC[C@@H](Nc2nc(Nc3ccc4c(c3)CCN(C(=O)CO)C4)ncc2C(F)(F)F)CC1 | 3.43 |

Target: hERG (KCNH2) (Homo sapiens, UniProt Q12809)
Sequence (Q12809 whole entry): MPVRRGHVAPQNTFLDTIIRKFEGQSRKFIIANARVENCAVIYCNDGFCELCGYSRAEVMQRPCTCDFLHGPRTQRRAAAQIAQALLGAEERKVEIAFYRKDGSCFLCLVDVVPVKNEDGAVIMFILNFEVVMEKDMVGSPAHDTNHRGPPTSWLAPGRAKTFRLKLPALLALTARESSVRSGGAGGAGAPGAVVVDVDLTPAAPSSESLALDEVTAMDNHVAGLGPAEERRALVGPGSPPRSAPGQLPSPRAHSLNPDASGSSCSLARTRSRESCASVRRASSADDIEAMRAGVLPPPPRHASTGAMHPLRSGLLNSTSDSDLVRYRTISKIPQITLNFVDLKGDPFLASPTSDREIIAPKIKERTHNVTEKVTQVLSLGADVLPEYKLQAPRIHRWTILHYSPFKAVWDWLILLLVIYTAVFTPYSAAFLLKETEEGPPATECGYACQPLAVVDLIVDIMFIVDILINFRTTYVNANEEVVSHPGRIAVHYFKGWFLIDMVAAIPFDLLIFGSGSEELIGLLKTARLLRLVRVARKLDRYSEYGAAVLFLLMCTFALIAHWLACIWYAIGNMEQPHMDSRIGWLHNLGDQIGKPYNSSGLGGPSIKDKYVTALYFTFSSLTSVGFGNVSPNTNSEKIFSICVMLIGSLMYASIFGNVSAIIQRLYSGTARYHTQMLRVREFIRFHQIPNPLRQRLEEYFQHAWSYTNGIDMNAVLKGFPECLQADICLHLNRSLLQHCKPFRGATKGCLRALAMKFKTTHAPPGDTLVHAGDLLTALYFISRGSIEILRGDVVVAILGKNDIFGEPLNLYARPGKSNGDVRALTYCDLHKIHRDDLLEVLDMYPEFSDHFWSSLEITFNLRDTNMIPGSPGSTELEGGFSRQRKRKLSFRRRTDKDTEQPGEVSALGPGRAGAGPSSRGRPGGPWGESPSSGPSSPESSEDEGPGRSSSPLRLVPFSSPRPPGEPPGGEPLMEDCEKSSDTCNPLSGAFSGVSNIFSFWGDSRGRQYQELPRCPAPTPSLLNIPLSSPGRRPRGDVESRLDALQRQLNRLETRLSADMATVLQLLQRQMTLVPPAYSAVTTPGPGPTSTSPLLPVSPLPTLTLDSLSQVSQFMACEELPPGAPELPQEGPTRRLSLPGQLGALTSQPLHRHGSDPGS
Assay: Inhibition of hERG expressed in HEK293 cells at 20 uM by whole cell patch clamp analysis
Assay type: toxicity, cell-based
Settings: HEK293 cells expressing hERG

| SMILES | inhibition at 20 µM [%] |
| --- | --- |
| CC(C)(O)CC(=O)N1Cc2ccc(Nc3ncc(C(F)(F)F)c(N[C@H]4CC[C@@H](N)CC4)n3)cc2C1 | 19.3 |
| CC(=O)N1Cc2ccc(Nc3ncc(C(F)(F)F)c(N[C@H]4CC[C@@H](N)CC4)n3)cc2C1 | 28.3 |
| CC(C)(O)C(=O)N1CCc2ccc(Nc3ncc(C(F)(F)F)c(N[C@H]4CC[C@@H](N)CC4)n3)cc2C1 | 28.1 |
| N[C@H]1CC[C@@H](Nc2nc(Nc3ccc4c(c3)CCN(C(=O)CO)C4)ncc2C(F)(F)F)CC1 | 10.4 |

System: not listed separately
Assay: Half life in ICR mouse at 10 mg/kg, po
Assay type: ADME, organism-based
Settings: in vivo

| SMILES | half-life [h] |
| --- | --- |
| CC(C)(O)CC(=O)N1Cc2ccc(Nc3ncc(C(F)(F)F)c(N[C@H]4CC[C@@H](N)CC4)n3)cc2C1 | 0.81 |
| CC(=O)N1Cc2ccc(Nc3ncc(C(F)(F)F)c(N[C@H]4CC[C@@H](N)CC4)n3)cc2C1 | 1.21 |
| CC(C)(O)C(=O)N1CCc2ccc(Nc3ncc(C(F)(F)F)c(N[C@H]4CC[C@@H](N)CC4)n3)cc2C1 | 9.08 |
| N[C@H]1CC[C@@H](Nc2nc(Nc3ccc4c(c3)CCN(C(=O)CO)C4)ncc2C(F)(F)F)CC1 | 2.3 |

Target: T1, Serine/threonine-protein kinase Chk1 (Homo sapiens, UniProt O14757)
T1 sequence (O14757 whole entry): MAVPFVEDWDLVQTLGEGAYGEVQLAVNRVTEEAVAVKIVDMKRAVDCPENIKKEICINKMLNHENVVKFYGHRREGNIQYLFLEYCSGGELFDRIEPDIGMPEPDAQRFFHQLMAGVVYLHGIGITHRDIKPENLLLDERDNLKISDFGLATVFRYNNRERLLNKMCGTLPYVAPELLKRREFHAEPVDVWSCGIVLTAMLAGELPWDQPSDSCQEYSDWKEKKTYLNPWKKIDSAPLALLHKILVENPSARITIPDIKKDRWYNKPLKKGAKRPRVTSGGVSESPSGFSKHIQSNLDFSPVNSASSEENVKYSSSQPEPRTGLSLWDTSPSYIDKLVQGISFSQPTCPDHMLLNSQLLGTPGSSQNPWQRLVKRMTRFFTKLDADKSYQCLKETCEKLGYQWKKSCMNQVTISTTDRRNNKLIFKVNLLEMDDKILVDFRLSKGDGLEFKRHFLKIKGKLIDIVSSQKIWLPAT
Assay: not given
Settings: not given

| SMILES | IC50 [nM] |
| --- | --- |
| CC(C)(O)CC(=O)N1Cc2ccc(Nc3ncc(C(F)(F)F)c(N[C@H]4CC[C@@H](N)CC4)n3)cc2C1 | 12.5 |
| CC(=O)N1Cc2ccc(Nc3ncc(C(F)(F)F)c(N[C@H]4CC[C@@H](N)CC4)n3)cc2C1 | 13.1 |
| CC(C)(O)C(=O)N1CCc2ccc(Nc3ncc(C(F)(F)F)c(N[C@H]4CC[C@@H](N)CC4)n3)cc2C1 | 14 |
| N[C@H]1CC[C@@H](Nc2nc(Nc3ccc4c(c3)CCN(C(=O)CO)C4)ncc2C(F)(F)F)CC1 | 17.6 |

Target: Receptor-type tyrosine-protein kinase FLT3 (Homo sapiens, UniProt P36888, D835Y)
Assay: not given
Settings: not given

| SMILES | IC50 [nM] |
| --- | --- |
| CC(C)(O)CC(=O)N1Cc2ccc(Nc3ncc(C(F)(F)F)c(N[C@H]4CC[C@@H](N)CC4)n3)cc2C1 | 1.12 |
| CC(=O)N1Cc2ccc(Nc3ncc(C(F)(F)F)c(N[C@H]4CC[C@@H](N)CC4)n3)cc2C1 | 1.63 |
| CC(C)(O)C(=O)N1CCc2ccc(Nc3ncc(C(F)(F)F)c(N[C@H]4CC[C@@H](N)CC4)n3)cc2C1 | 2.21 |
| N[C@H]1CC[C@@H](Nc2nc(Nc3ccc4c(c3)CCN(C(=O)CO)C4)ncc2C(F)(F)F)CC1 | 0.46 |

System: not listed separately
Assay: AUC (infinity) in ICR mouse at 10 mg/kg, po
Assay type: ADME, organism-based
Design: dose 10 mg/kg, route po
Settings: in vivo

| SMILES | AUC(0-inf) [ng·h/mL] |
| --- | --- |
| CC(C)(O)CC(=O)N1Cc2ccc(Nc3ncc(C(F)(F)F)c(N[C@H]4CC[C@@H](N)CC4)n3)cc2C1 | 104 |
| CC(=O)N1Cc2ccc(Nc3ncc(C(F)(F)F)c(N[C@H]4CC[C@@H](N)CC4)n3)cc2C1 | 103 |
| CC(C)(O)C(=O)N1CCc2ccc(Nc3ncc(C(F)(F)F)c(N[C@H]4CC[C@@H](N)CC4)n3)cc2C1 | 57.5 |
| N[C@H]1CC[C@@H](Nc2nc(Nc3ccc4c(c3)CCN(C(=O)CO)C4)ncc2C(F)(F)F)CC1 | 411 |
